Literature values, collected in patent US9149457B2, “Nutraceutical composition for PDE4 inhibition, enhanced dopamine metabolism and long term potentiation” (priority 2013, dated 2015).

How the values were obtained:
[1] = system: acetylcholine; conditions: references 33-35
[2] = system: phosphodiesterase enzymes (PDE 1 through 5); conditions: references 24-27
[3] = references 46-47
[4] = references 7-13

CC(=O)O[C@H](CC(=O)[O-])C[N+](C)(C)C [Acetyl-L-carnitine, acetyl-L-carnitine]
levels of acetylcholine in the brain [1]: increase the levels

O=c1cc(-c2ccc(O)c(O)c2)oc2cc(O)cc(O)c12 [Luteolin, luteolin]
inhibition of phosphodiesterase enzymes that degrade 3',5'-cyclic nucleotides [2]: can inhibit

O=C(/C=C/C=C/c1ccc2c(c1)OCO2)N1CCCCC1 [Piperine, piperine]
bioavailability of resveratrol [3]: enhance the bioavailability of resveratrol

COc1ccc(C2CNC(=O)C2)cc1OC1CCCC1 (stereo not shown) [rolipram]
side effect [4]: emesis (vomiting) at low doses
